Columns and labels:
[1] = tested on: primary human hepatocellular carcinoma (HCC) tumor; test: TCA: Compound B-1 with doxorubicin hydrochloride, primary HCC tumor; type: cell-based; conditions: tumor L090923, Liver
Procedure: (§1) In both studies, cell viability was assessed after 6 days in culture. Statistical analysis of the combination matrix was performed to assess whether synergy, additivity, or antagonism of the combination treatments were observed.
(§2) Materials: Primary patient samples (See Tables 16 and 17, below) were excised from mice when they reached 500 mg to 1000 mg in size and processed immediately, or after overnight shipment. Tumors were serially passaged by subcutaneous implantation of 50 mg to 150 mg fragments into the flanks of immunocompromised (nude) mice. Tumors were used within the first 5 or 7 passages.
Tumor Chemosensitivity Assay (TCA): Primary tumor samples were grown and serially passaged in immunocompromised mice. Tumors were mechanically dissociated into small fragments (1 mm to 2 mm) with scalpels in phosphate buffered saline (PBS or RPMI) and centrifuged at 200×g for 5 minutes at room temperature in 50 mL centrifuge tubes. Samples were resuspended in 10 mL of cell dissociation reagent and enzymatically digested with mechanical agitation for 1 to 3 hours at 37° C., 5% CO2 to a single cell suspension. Ten mL of complete RPMI-1640 media was added to the cell mixture and pipetted up and down 4 to 5 times. The mixture was then passed through a 70 μm or 100 μm mesh strainer to remove undigested tumor. […] Cells were diluted in Trypan blue, and viable cells that excluded the dye were counted. […]

[2] = tested on: primary human tumors (NSCLC, esophageal, gastric); test: TCA: Compound B-1 with cisplatin, primary tumors; type: cell-based; design: Average Bliss score: scale not given here
Procedure: as §1, §2
(§3) Tumor Chemosensitivity Assay (TCA): Primary tumor samples were grown and serially passaged in immunocompromised mice. Tumors were mechanically dissociated into small fragments (1 mm to 2 mm) with scalpels in phosphate buffered saline (PBS or RPMI) and centrifuged at 200×g for 5 minutes at room temperature in 50 mL centrifuge tubes. Samples were resuspended in 10 mL of cell dissociation reagent and enzymatically digested with mechanical agitation for 1 to 3 hours at 37° C., 5% CO2 to a single cell suspension. Ten mL of complete RPMI-1640 media was added to the cell mixture and pipetted up and down 4 to 5 times. The mixture was then passed through a 70 μm or 100 μm mesh strainer to remove undigested tumor. The filtrate was then centrifuged 200×g for 5 minutes at room temperature and resuspended in 20 mL complete RPMI-1640. This cell suspension was slowly layered onto 20 mL of room temperature Histopaque and centrifuged at 400×g for 15 minutes at room temperature without a brake. The interface was transferred to a new 50 mL centrifuge tube and 15 mL of complete RPMI-1640 was added. This suspension was centrifuged at 200×g at room temperature, and the resulting pellet was resuspended in 10 mL of complete PC-1 media, except for pancreatic tumors in which case Pancreatic Medium was used. Cells were diluted in Trypan blue, and viable cells that excluded the dye were counted. Only the larger, tumor cells were included in the cell count. Cells were diluted in complete PC-1 or Pancreatic media, as appropriate for the cells, and were plated at 15,000 to 20,000 cells per well in 100-135 μL in ultra-low attachment U-bottom plates.
(§4) Compound Addition: For these studies, a 10 mM stock of the DNA-PK inhibitor (Compound B-1 or Compound B-2) was made in DMSO and used to add to cells from most tumors with HP D300 Digital Dispenser (Tecan US, Morrisville, NC, USA), or diluted into the appropriate media (PC-1 or pancreatic media) as a 5-10× stock and added to cells (OVX001 and ENX001, 005). PC-1, pancreatic media, and chemotherapeutics were also added so that final well volume was 150 μL. Doxorubicin was made as DMSO stock of 1 or 10 mM and added to cells for most tumors with HP D300 Digital Dispenser, or diluted into PC-1 as 5-10× stock and added to cells (OVX001 and ENX001, 005). Cisplatin (cis-diammine platinum(II), dichloride) was prepared fresh to 10 mM in warm (60° C.) distilled water and diluted in PC-1 as a 5-10× stock. […] Different starting concentrations, dose ranges, and number of doses were used for each experiment based on the response data available at the time.
(§5) For bleomycin experiments, combinations with Compound B-1 at all concentrations were run in triplicate. A 6×3 matrix was designed on one plate, consisting of a 2-point concentration range of 0.73 μM and 2.2 μM Compound B-1 plus no treatment control, in 3 columns each of 6 wells. Bleomycin (plus ‘no treatment’ control) was added to 9 wells in rows of this plate. Similar 6×3 matrices were set up for additional agents with different starting concentrations for compound dilutions. For cisplatin experiments the starting concentration was 30 μM which was diluted 1:3. […] For doxorubicin hydrochloride experiments the starting concentration was 5 μM doxorubicin which was diluted 1:3. For gemcitabine experiments the starting concentration was 5 μM gemcitabine which was diluted 1:3. […]

[3] = tested on: primary human tumors (esophageal, gastric); test: TCA: Compound B-1 with 5-FU, primary tumors; type: cell-based
Procedure: as §1, §2, §3, §4, §5

[4] = tested on: primary human tumors (esophageal, gastric); test: TCA: Compound B-1 with carboplatin, primary tumors; type: cell-based
Procedure: as §1, §2, §3, §4, §5

[5] = tested on: pKAP1 and pH2AX levels in A549 cells; test: pH2AX and pKAP1 immunoblot, Compound B-1 and etoposide in A549 lung cells; type: cell-based, human; conditions: 3 μM Compound B-1 + 10 μM etoposide; at 8 h
Procedure: The human cancer cell lines A549 (CCL-185), DU4475 (HTB-123), MDA-MB-436 (HTB-130), and MDA-MB-468 (HTB-132) were obtained from American Type Culture Collection (ATCC; Manassas, VA).
The A549 human lung cancer cell line was purchased from ATCC and was cultured in DMEM supplemented with 10% fetal bovine serum, 1× non-essential amino acids and 1× Penicillin/Streptomycin (complete medium). Cells were maintained at a subconfluent state by passaging every 2-3 days. Human breast cancer cells lines DU4475, MDA-MB-436, and MDA-MB-468 were purchased from ATCC and cultured in DMEM supplemented with 10% fetal bovine serum, 1× Glutamax and Penicillin/Streptomycin. Cells were maintained at a subconfluent state by passaging every 2-3 days.
Cells were then incubated for the indicated amount of time and harvested for analysis.
A 15-μL aliquot of each SDS-PAGE sample was loaded onto 12-lane 4 20% Tris-Glycine gels and the gels were run at 125v constant voltage until the dye front reached the bottom (approximately 2 h). Following electrophoresis, separated proteins in the gels were transferred to a nitrocellulose membrane. Transfer was carried out for 2 h at 1.5 A constant current in a cold room using a Hoefer transfer apparatus (Model TE42 or TE62, Hoefer Inc, Holliston, MA) according to manufacturer's instructions. […]

[6] = tested on: primary human endometrial tumors (dissociated cells); test: Tumor Chemosensitivity Assay (TCA): Compound B-2 with doxorubicin, primary endometrial tumors, viability after 6 days, Bliss; type: cell-based
Procedure: Specifically, one study described the combination of Compound B-2 and doxorubicin hydrochloride. In this study, a panel of primary human ovarian and endometrial tumors was dissociated and treated with Compound B-2 to determine the effectiveness of this selective DNA-PK inhibitor to enhance the activity of doxorubicin.
as §1, §2
Tumor Chemosensitivity Assay (TCA): Primary tumor samples were grown and serially passaged in immunocompromised mice. Tumors were mechanically dissociated into small fragments (1 mm to 2 mm) with scalpels in phosphate buffered saline (PBS or RPMI) and centrifuged at 200×g for 5 minutes at room temperature in 50 mL centrifuge tubes. […] Cells were diluted in Trypan blue, and viable cells that excluded the dye were counted. […]

CNC(=O)c1ccnc2c([C@H](C)CNc3cc(-c4cnc(C)nc4)ncn3)cccc12 [Compound B-1]
Average Bliss score [1]: 4 | tumors that showed additivity or synergy ([2]; nine of 10 tumors): 90% | tumors that demonstrated antagonism ([2]; one of 10 tumors): 10% | Average Bliss score ([2]; tumor ESX005, Esophageal): 2 | Synergy/Additivity/Antagonism ([2]; tumor ESX005, Esophageal): Additive (Values between 5 and −5 are considered additive) | Average Bliss score ([2]; tumor ESX008, Esophageal): 1 | Synergy/Additivity/Antagonism ([2]; tumor ESX008, Esophageal): Additive (Values between 5 and −5 are considered additive) | Average Bliss score ([2]; tumor GAX001, Gastric): 14 | Synergy/Additivity/Antagonism ([2]; tumor GAX001, Gastric): Strongly Synergistic (greater than 10 are considered strongly synergistic) | Average Bliss score ([2]; tumor GAX007, Gastric): 2 | Synergy/Additivity/Antagonism ([2]; tumor GAX007, Gastric): Additive (Values between 5 and −5 are considered additive) | Average Bliss score ([2]; tumor GAX027, Gastric): −3 | Synergy/Additivity/Antagonism ([2]; tumor GAX027, Gastric): Additive (Values between 5 and −5 are considered additive) | Average Bliss score ([2]; tumor OD33117, Lung (NSCLC)): 6 | Synergy/Additivity/Antagonism ([2]; tumor OD33117, Lung (NSCLC)): Synergistic (greater than 5 are considered synergistic) | Average Bliss score ([2]; tumor OD33966, Lung (NSCLC)): −1 | Synergy/Additivity/Antagonism ([2]; tumor OD33966, Lung (NSCLC)): Additive (Values between 5 and −5 are considered additive) | Average Bliss score ([2]; tumor OD36088, Lung (NSCLC)): 6 | Synergy/Additivity/Antagonism ([2]; tumor OD36088, Lung (NSCLC)): Synergistic (greater than 5 are considered synergistic) | Average Bliss score ([2]; tumor TS110310, Lung (NSCLC)): −3 | Synergy/Additivity/Antagonism ([2]; tumor TS110310, Lung (NSCLC)): Additive (Values between 5 and −5 are considered additive) | Average Bliss score ([2]; tumor YAS111611, Lung (NSCLC)): −6 | Synergy/Additivity/Antagonism ([2]; tumor YAS111611, Lung (NSCLC)): Antagonistic (less than −5 are considered antagonistic) | tumors that showed synergy or additivity ([3]; 5 tumors): 100% | Average Bliss score ([3]; tumor ESX005, Esophageal): −1 | Synergy/Additivity/Antagonism ([3]; tumor ESX005, Esophageal): Additive (Values between 5 and −5 are considered additive) | Average Bliss score ([3]; tumor ESX008, Esophageal): −2 | Synergy/Additivity/Antagonism ([3]; tumor ESX008, Esophageal): Additive (Values between 5 and −5 are considered additive) | Average Bliss score ([3]; tumor GAX001, Gastric): 6 | Synergy/Additivity/Antagonism ([3]; tumor GAX001, Gastric): Synergistic (greater than 5 are considered synergistic) | Average Bliss score ([3]; tumor GAX007, Gastric): 0 | Synergy/Additivity/Antagonism ([3]; tumor GAX007, Gastric): Additive (Values between 5 and −5 are considered additive) | Average Bliss score ([3]; tumor GAX027, Gastric): 4 | Synergy/Additivity/Antagonism ([3]; tumor GAX027, Gastric): Additive (Values between 5 and −5 are considered additive) | tumors that showed synergy or additivity ([4]; 5 tumors): 100% | Average Bliss score ([4]; tumor ESX005, Esophageal): 3 | Synergy/Additivity/Antagonism ([4]; tumor ESX005, Esophageal): Additive (Values between 5 and −5 are considered additive) | Average Bliss score ([4]; tumor ESX008, Esophageal): 5 | Synergy/Additivity/Antagonism ([4]; tumor ESX008, Esophageal): Synergistic (greater than 5 are considered synergistic) | Average Bliss score ([4]; tumor GAX001, Gastric): 2 | Synergy/Additivity/Antagonism ([4]; tumor GAX001, Gastric): Additive (Values between 5 and −5 are considered additive) | Average Bliss score ([4]; tumor GAX007, Gastric): 4 | Synergy/Additivity/Antagonism ([4]; tumor GAX007, Gastric): Additive (Values between 5 and −5 are considered additive) | Average Bliss score ([4]; tumor GAX027, Gastric): 4 | Synergy/Additivity/Antagonism ([4]; tumor GAX027, Gastric): Additive (Values between 5 and −5 are considered additive) | pH2AX level, max increase as compared to etoposide treatment alone [5]: 2 fold | pKAP1 level, max increase as compared to etoposide treatment alone [5]: 7 fold

[2H]c1nc(C)nc([2H])c1-c1cc(NC[C@@H](C)c2cccc3c(C(=O)NC)ccnc23)ncn1 [Compound B-2]
Average Bliss score ([6]; tumor ENX001 (Endometrial)): 6 | Average Bliss score ([6]; tumor ENX005 (Endometrial)): 21
